Patent US10959981B2, “Composition for preventing or treating climacteric symptoms comprising soybean extract comprising coumestrol as an active ingredient” (AMOREPACIFIC CORPORATION, priority 2014, dated 2021)

Legend:
[1] = test system: climacteric mouse models induced by oophorectomy; assay: Body weight change of oophorectomy-induced climacteric mice over 14 weeks; type: in vivo; settings: oophorectomized hairless mice; feed for 14 weeks; extract 500 mg/kg, coumestrol 0.5 mg/kg; FIG. 1
Experimental: Female hairless mice weighing 26-27 g were used as experimental animals. The experimental animals were bred under a condition of 23±1° C., 40-60% humidity and 12-hour light/dark cycles. Basic feed and drinking water were provided ad libitum. On the previous day before blood taking, drinking water was provided only. Oophorectomy was conducted aseptically after anesthetizing 15-week-old hairless mice and disinfecting with 70% ethanol. After incising skin tissue about 2-3 cm along the spinal cord below one lateral dorsal part, the muscle and peritoneum at the part where an ovary is located were incised by 1.5 cm to expose the ovary. After removing the ovary, the peritoneum, muscle and skin were sutured using silk suture. The ovary at the opposite side was also removed by the same method. For a control group, a sham operation of incising the muscle and peritoneum but suturing without removal of the ovary was conducted. After the surgical operation, the mice were allowed to recover for a week. […] The administration dosage for the coumestrol administration group was determined such that the amount of coumestrol in the germinated and fermented bean was the same as that of the coumestrol 0.5 mg/kg administration group (content of coumestrol in the germinated and fermented bean extract=0.1%; 500 mg/kg×0.1%=0.5 mg/kg). […]

[2] = test system: climacteric mouse models induced by oophorectomy; assay: Bone density by dual-energy X-ray absorptiometry in oophorectomized mice; type: in vivo; settings: oophorectomized hairless mice, 30 weeks old; feed for 14 weeks; extract 500 mg/kg, coumestrol 0.5 mg/kg; control group 0.1975, oophorectomy group 0.1821
Experimental: (§1) Female hairless mice weighing 26-27 g were used as experimental animals. The experimental animals were bred under a condition of 23±1° C., 40-60% humidity and 12-hour light/dark cycles. Basic feed and drinking water were provided ad libitum. On the previous day before blood taking, drinking water was provided only.
(§2) Oophorectomy was conducted aseptically after anesthetizing 15-week-old hairless mice and disinfecting with 70% ethanol. After incising skin tissue about 2-3 cm along the spinal cord below one lateral dorsal part, the muscle and peritoneum at the part where an ovary is located were incised by 1.5 cm to expose the ovary. After removing the ovary, the peritoneum, muscle and skin were sutured using silk suture. The ovary at the opposite side was also removed by the same method. For a control group, a sham operation of incising the muscle and peritoneum but suturing without removal of the ovary was conducted. […]
(§3) The experimental animals were divided into the control group (sham operation group) and an oophorectomy group. […] The administration dosage for the coumestrol administration group was determined such that the amount of coumestrol in the germinated and fermented bean was the same as that of the coumestrol 0.5 mg/kg administration group (content of coumestrol in the germinated and fermented bean extract=0.1%; 500 mg/kg×0.1%=0.5 mg/kg). […]

[3] = test system: climacteric mouse models induced by oophorectomy; assay: Skin thickness measured with calipers in oophorectomized mice; type: in vivo; settings: oophorectomized hairless mice, 30 weeks old; extract 500 mg/kg, coumestrol 0.5 mg/kg in feed for 14 weeks; FIG. 2
Experimental: as §1
as §2, with “method.” for “method. For a control group, a sham operation of incising the muscle and peritoneum but suturing without removal of the ovary was conducted.”
as §3
Skin thickness was measured for the same test group (30 weeks old) as that in Test Example 1 using calipers (HEPT, Cjina).

MMP-1 = MMP-1 expression in UV-irradiated 3D artificial skin; type: cell-based; settings: 20 mJ UV, 0.1 ppm coumestrol or 100 ppm extract, relative to the non-UV-irradiated group as 100, UV-irradiated group 142.4%
Experimental: (§4) It is known that the skin in the climacteric period is vulnerable to skin irritation such as UV because of decreased skin thickness. 3D artificial skin was prepared and the effect of the germinated and fermented bean extract on the skin was tested after UV irradiation.
(§5) A matrix was prepared by mixing 2.64×10^5 fibroblasts in a collagen solution. After seeding 5×10^6 keratinocytes thereon, differentiation into artificial skin was induced by treating with 1.2 mM calcium. 2 weeks later, after irradiating 20 mJ UV on the cells and treating with 0.1 ppm coumestrol or 100 ppm germinated and fermented bean extract, the culture medium was recovered and the expression levels of MMP-1 and procollagen were measured in the same manner as in Test Example 5. The result is given in Table 2 relative to the non-UV-irradiated group as 100.

procollagen = assay: Procollagen expression in UV-irradiated 3D artificial skin; type: cell-based; settings: 20 mJ UV, 0.1 ppm coumestrol or 100 ppm extract, relative to the non-UV-irradiated group as 100, UV-irradiated group 68.7%
Experimental: as §4, §5

## O=c1oc2cc(O)ccc2c2oc3cc(O)ccc3c12 [coumestrol]
[1]
  weight gain: significantly less than that of the oophorectomy group
[2]
  Bone density: 0.1902 g/cm^2
[3]
  skin thickness: the same as that of the oophorectomy group
MMP-1
  MMP-1: 122.8%
procollagen
  Procollagen: 82.4%
